Read-outs that look alike come from different tables or passages of the source.
B1: Wnt3a purified protein: Purified Wnt3a protein, Wnt signaling pathway agonist (stemimmune LLC) (protein, UniProt P56704 19-352, looked up)
Protein Wnt-3a: SYPIWWSLAVGPQYSSLGSQPILCASIPGLVPKQLRFCRNYVEIMPSVAEGIKIGIQECQHQFRGRRWNCTTVHDSLAIFGPVLDKATRESAFVHAIASAGVAFAVTRSCAEGTAAICGCSSRHQGSPGKGWKWGGCSEDIEFGGMVSREFADARENRPDARSAMNRHNNEAGRQAIASHMHLKCKCHGLSGSCEVKTCWWSQPDFRAIGDFLKDKYDSASEMVVEKHRESRGWVETLRPRYTYFKVPTERDLVYYEASPNFCEPNPETGSFGTRDRTCNVSSHGIDGCDLLCCGRGHNARAERRREKCRCVFHWCCYVSCQECTRVYDVHTCK

What was measured:
human hepatocytes = experiment: Expansion of human hepatocytes in HM medium with, without or with replaced Wnt signaling pathway agonist (6 days); assay type: cell-based; conditions: 50 ng/ml Wnt3a purified protein or CHIR 0.1 μM
Description: (§1) A. Cell photographs of human hepatocytes cultured for 6 days in: HM medium containing Wnt3a conditioned medium, HM medium without Wnt3a conditioned medium, HM medium containing Wnt3a purified protein instead of Wnt3a conditioned medium, and HM medium containing CHIR instead of Wnt3a conditioned medium.
as §1, with “B. Fold of expansion” for “A. Cell photographs”
Cryopreserved human liver cells were purchased from Celsis In Vitro Technologies (Baltimore, MD, U.S.). The cryopreserved human hepatocytes were resuscitated in DMEM medium containing 10% serum, and seeded in a collagen-I-coated plate at 2*10^4 cells/cm^2. The culture plate was incubated at 37° C. in a 5% CO2, 5% O2 incubator. The medium was changed to the hepatocyte medium one day after seeding and every 3 days thereafter. After 6 days of culture, the fully grown cells were trypsinized and seeded in a collagen-I-coated plate at 3*10^4 cells/cm^2. The culture plate was incubated at 37° C. in a 5% CO2 and 5% O2 incubator.
The HM medium contains a variety of growth factors and small molecule compounds.

ProliHHs [1] = system: ProliHHs
Description: (§2) The fully grown proliferating human hepatocytes are trypsinized and re-suspended in the hepatocyte medium, and seeded in a non-attached 24-well plate (Elplasia, Japan) at 5*10^5 cells/well. One day later, the medium was replaced with the hepatocyte induction medium, and the cells will slowly aggregate into cell spheres. The medium was changed every 2 days, and the induced cells were collected 10 days after the induction.
(§3) • 1) Extract cellular RNA by Trizol (Invitrogen) or RNeasy FFPE Kit (Qiagen). • 2) Obtain cDNA by M-MLV reverse transcriptase (Promega) kit, using 1 μg Trizol-extracted RNA, or 1 μg or all (according to the particular amount) of the RNA extracted by RNeasy FFPE Kit. • 3) Perform real-time quantitative PCR using SYBR Premix Ex Taq kit (TaKaRa), and detect expression of genes with ABI StepOnePlus real-time PCR system (Applied Biosystems). All Q-PCR data were performed with at least 2 repeats.
(§4) For detecting urea secretion ability of the cultured cells, supernatants of cell culture were collected after 24-hour culture and analyzed by urea assay kit (Abnova) according to its protocol.
(§5) For measurement of CYP2B6 metabolism activity of the proliferating human hepatocytes, cells subjected 10 days of hepatic induction and freshly resuscitated human hepatocytes were incubated respectively in a medium containing 100 um bupropion. Supernatants of cell culture were present to RILD Liver Company to detect the production of CYP2B6 metabolites using mass spectrometry. Standard curves were drawn using commercially purchased standards.

ProliHHs [2] = experiment: In vitro hepatic maturation induction of ProliHHs (3D culture, 10 days; morphology, gene expression, CYP2B6 and urea metabolism); conditions: components added to HM to give HIM
Description: as §2, §3, §4, §5

Row | Molecule | cell morphology and expansion fold compared with Wnt3a conditioned medium (human hepatocytes) | expansion of human hepatocytes when replacing Wnt3a conditioned medium in HM medium (human hepatocytes) | role in hepatic maturation medium (metabolic maturation, inhibition of progenitor gene expression) (ProliHHs [1]) | role in hepatic maturation medium (metabolic maturation, inhibition of progenitor gene expression) (ProliHHs [2])
1 | Cc1c[nH]c(-c2cnc(NCCNc3ccc(C#N)cn3)nc2-c2ccc(Cl)cc2Cl)n1 [CHIR, CHIR99021] | similar | could be expanded | – | –
2 | C[C@@H]1C[C@H]2[C@@H]3CCC4=CC(=O)C=C[C@]4(C)[C@@]3(F)[C@@H](O)C[C@]2(C)[C@@]1(O)C(=O)CO [DEX, Dexamethasone] | – | – | key factors | –
3 | C=C[C@@]1(C)CC(=O)[C@]2(O)[C@@]3(C)[C@@H](O)CCC(C)(C)[C@@H]3[C@H](O)[C@H](OC(C)=O)[C@@]2(C)O1 [Forskolin] | – | – | – | key factors
4 | Oncostatin M [OSM] | – | – | key factors | –
5 | B1 | similar | could be expanded | – | –
